Source: patent EP2002838A1, “Use of aryl and hetaryl amide derivatives as modulators of an EP2 receptor” (Bayer Schering Pharma AG, priority 2007, dated 2008)

What was measured:
[1] = tested on: Kumulus-Eizell Komplexe; assay: Cumulus expansion test in vitro; format: cell-based, Mäuse; details: competition with PGE2
Excerpt: In immaturen weiblichen Mäusen (Stamm : CD1 (ICR) von Charles River) wird in einem Alter von 14-18 Tagen die Follikulogenese durch eine einmalige Gabe (intraperitoneal) von 10 1.E. PMSG (Pregnant Mare Serum Gonadotropine; Sigma G-4877, Lot 68H0909) induziert. 47 - 50 Stunden nach der Injektion werden die Ovarien entnommen und die Kumulus-Eizell Komplexe entnommen. Der Kumulus Komplex ist in diesem Stadium noch nicht expandiert. Die Kumulus-Eizell Komplexe werden nun für 20 - 24 Stunden mit Prostaglandin E2 (PGE2) (0,3 µM), Vehikel Kontrolle (Ethanol) oder Testsubstanzen inkubiert. Medium: alpha- MEM Medium mit 0,1 mM IBMX, Pyruvate (0,23 mM) Glutamine (2 mM), Pen/Strep 100 IU/ml Pen. und 100 µg/ml Strep.) und HSA (8 mg/ml)). Danach wird die Kumulus Expansion durch die Einteilung in vier Stadien (nach Vanderhyden et al. Dev Biol. 1990 Aug;140(2):307-317) festgestellt. Tabelle 1: Beispiel für die biologische Wirksamkeit der erfindungsgemäßen Verbindungen (gemessen mittels cAMP Antagonismustest): […]

[2] = molecular target: T1, EP2-Subtyp des humanen PGE2-Rezeptors (Homo sapiens, UniProt P43116); assay: cAMP antagonism test (cellular, HTRF cAMP detection, PGE2 stimulation); format: cell-based; details: cAMP Antagonismustest; in presence of agonist PGE2; read-out: Antagonismus [IC50
T1 construct: host or cells: cells in a culture plate
T1 sequence (P43116 whole entry): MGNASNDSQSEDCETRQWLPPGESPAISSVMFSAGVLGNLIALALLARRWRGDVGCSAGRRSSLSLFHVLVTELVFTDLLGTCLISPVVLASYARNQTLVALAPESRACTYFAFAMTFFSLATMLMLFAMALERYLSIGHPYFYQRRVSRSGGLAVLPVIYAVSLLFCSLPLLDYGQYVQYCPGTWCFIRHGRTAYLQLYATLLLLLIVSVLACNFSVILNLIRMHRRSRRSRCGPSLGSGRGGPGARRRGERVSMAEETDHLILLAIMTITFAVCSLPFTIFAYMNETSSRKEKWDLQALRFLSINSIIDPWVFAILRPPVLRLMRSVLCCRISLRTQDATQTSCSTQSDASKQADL
Excerpt: Die Bindung von PGE2 an den EP2-Subtyp des humanen PGE2-Rezeptors induziert die Aktivierung membranständiger Adenylatzyklasen und führt zur Bildung von cAMP. In Gegenwart des Phosphodiesteraseinhibitors IBMX wird das durch diese Stimulation akkumulierte und mittels Zell-Lyse freigesetzte cAMP in einem kompetitiven Nachweisverfahren eingesetzt. In diesem Test konkurriert das cAMP im Lysat mit cAMP-XL665 um die Bindung eines Eu-Kryptat markierten Anti-cAMP Antikörpers. Dabei entsteht in Abwesenheit von zellulärem cAMP ein maximales Signal, welches auf der Kopplung dieses Antikörpers an das cAMP-XL665 Molekül beruht. Dadurch entsteht nach Anregung bei 337 nm ein auf FRET (fluorescence resonance energy transfer) basierendes, langanhaltendes Emissionssignal bei 665 nm (und bei […]). Beide Signale werden in einem geeigneten Messgerät zeitlich versetzt, d.h. nach Abklingen der Hintergrundsfluoreszenz gemessen. Jegliche Erhöhung des durch Prostglandin-E2-Gabe bedingten niedrigen FRET-Signals (gemessen als Well-Ratio-Veränderung = Emission665nm/Emission620nm * 10000) zeigt die Wirkung von Antagonisten.
Die in einer Testplatte und 30 % DMSO vorgelegten Substanzlösungen (0.75 µl) werden in 16 µl einer KRSB+IBMX-Stimulationslösung gelöst (1 X Krebs-Ringer Bicarbonate Buffer; Sigma-Aldrich # K-4002; inklusive 750 µM 3-Isobutyl-1-methylxanthine Sigma-Aldrich # I-7018), anschließend werden 15 µl davon in eine medienfreie Zellkulturplatte überführt, die kurz zuvor mit KRSB gewaschen worden war.
Nach einer 30-minütigen Vorinkubation bei Raumtemperatur (RT) werden 5 µl einer 4xPGE2 Lösung (11 nM) zugegeben und in Gegenwart des Agonisten für weitere 60 min bei RT inkubiert (Volumen: - 20 µl), bevor die Reaktion anschließend durch Zugabe von 5 µl Lysispuffer gestoppt und für weitere 20 min bei RT inkubiert wird (Volumen: - 25 µl). Das Zell-Lysat wird anschließend in eine Messplatte überführt und entsprechend den Herstellerangaben (cyclic AMP kit Cisbio International # 62AMPPEC) gemessen.

[3] = molecular target: T1, EP2-Subtyp des humanen PGE2-Rezeptors; assay: cAMP agonism test (cellular, HTRF cAMP detection, without PGE2); format: cell-based

| Structure (SMILES) | IC50 [2] [nM] | further results |
| --- | --- | --- |
| Cc1[nH]c2c(F)ccc(C)c2c1CCNC(=O)c1ccc(-c2csnn2)cc1 [Beispiel 21, N-[2-(7-Fluor-2,4-dimethyl-1H-indol-3-yl)-ethyl]-4-[1,2,3]thiadiazol-4-yl-benzamid] |  | Unterdrückung der Kumulus Expansion ([1]; concentration 10µM): 50% |
| CC(C)Oc1ccc2c(=O)c3cc(C(=O)O)ccc3oc2c1 [AH 6809, reference compound] |  | Unterdrückung der Kumulus Expansion ([1]; concentration 100 - 200 µM): ca. 30% |

Now from value to compound, other results behind:

| IC50 [2] [nM] | Structure (SMILES) | further results |
| --- | --- | --- |
| 960 | Cc1[nH]c2c(F)ccc(C)c2c1CCNC(=O)c1ccc(-n2cccc2)cc1 [Beispiel 13, N-[2-(7-Fluor-2,4-dimethyl-1H-indol-3-yl)-ethyl]-4-pyrrol-1-yl-benzamid] |  |
| 1900 | Cc1[nH]c2c(F)ccc(C)c2c1CCNC(=O)c1cccc(-c2cccnc2)c1 [Beispiel 20, N-[2-(7-Fluor-2,4-dimethyl-1H-indol-3-yl)-ethyl]-3-pyridin-3-yl-benzamid] |  |
| 1000 | Cc1[nH]c2c(F)ccc(C)c2c1CCNC(=O)c1cccc(-c2cc[nH]n2)c1 [Beispiel 15, N-[2-(7-Fluor-2,4-dimethyl-1H-indol-3-yl)-ethyl]-3-(1 H-pyrazol-3-yl)-benzamid] | Inhibition im zellulären Agonismustest [3]: keine Inhibition |
